According to patent publication EP0917542B1, “PROCESS FOR POLYMERIZATION OF OLEFINIC MONOMERS” (E.I. DU PONT DE NEMOURS AND COMPANY, priority 1996, dated 1998):

Test: Stability in neutral aqueous dispersion, followed by 19F NMR
Assay type: physicochemical
Conditions: aqueous dispersion with ammonium perfluorononanoate surfactant; heated in an oil bath at 100°C for 2 hr
Procedure: A solution of 2.41 g of ammonium perfluorononanoate (surfactant) in 1-L of deionized water was processed for 5 minutes through a Microfluidizer™ Model 110T with 4.14 g of n-perfluorobutanesulfonyl chloride. The mixture was cooled by passing though a coil chilled in ice water during the processing. A clear mixture was obtained. […] A second aliquot of the solution was heated in an oil bath at 100°C for 2 hr and then analyzed by ^19F NMR. […] A more concentrated mixture was prepared by adding 10.4 g of n-perfluorobutanesulfonyl chloride to a solution of 0.5 g ammonium perfluorononanoate in 100 mL of deionized water with processing through the Microfluidizer™.

SMILES: O=S(=O)(Cl)C(F)(F)C(F)(F)C(F)(F)C(F)(F)F [n-perfluorobutanesulfonyl chloride]
- 19F NMR spectrum after heating (stability in a neutral aqueous mixture): essentially unchanged
